Reference: patent US20260085081A1, “PHOSPHATIDYLAMINE COMPOUNDS INCLUDING A PLURALITY OF TERTIARY AMINO GROUP STRUCTURES AND COMPOSITIONS THEREOF” (PEKING UNIVERSITY, priority 2022, published 2026)

Experiments:
[1] = system: Fluc-mRNA (luciferase expression); experiment: In vivo transfection efficiency of Fluc-mRNA lipid nanoparticles after intramuscular injection; parameters: species or system mice; details: for expression in vivo compared with control MC3 / enhancement of in vivo expression with respect to control MC3: DOPE group, weight ratio 10:1; for expression in vivo compared with control MC3 / in vivo transfection (expression, FIG. 5): 3 μg Fluc-mRNA/mouse; for enhancement of in vivo expression with respect to control MC3: 3 g Fluc-mRNA/mouse; for Intramuscular injection (PL/MC3) expression strength level: ratio of expression PL/MC3; for in vivo transfection (expression, FIG. 5): weight ratio lipid nanoparticle/RNA 10:1, DOPE or DSPC group
Method: 6 h after intramuscular injection of mRNA LNPs, mice were injected intraperitoneally with 0.2 mL […] (20 mg/mL PBS solution). After 10 min, mice were anesthetized with isoflurane in oxygen in a ventilated anesthesia room and imaged with an imaging system (IVIS, PerkinElmer), and luminescence was quantified using Living Image software (PerkinElmer).

[2] = system: white adipocyte; experiment: White adipocyte administration, expression relative to SM102; type: cell-based; details: for White adipocyte administration (PL/SM102) expression strength level: ratio of expression PL/SM102; for expression compared with control SM102: white adipocyte administration
Excerpt: (§1) Finally, the expression levels of lipid nanoparticles with a plurality of tertiary amine groups from the embodiments of the present disclosure after intramuscular injection, white adipocyte administration, and intraperitoneal injection are summarized, and compared with lipid nanoparticles prepared from commercially available cationic lipids MC3 and SM102. […] However, the expression rates of the phosphatidylamine lipids with a plurality of tertiary amine groups from embodiments of the present disclosure are higher than that of SM102.

[3] = system: adipose tissue; experiment: Intraperitoneal injection of Fluc-mRNA LNPs, expression and distribution; type: in vivo, mice; details: for Intraperitoneal injection (PL/SM102) expression strength level: ratio of expression PL/SM102; for expression compared with control SM102: intraperitoneal injection
Method: FIG. 10 illustrates the effect of Fluc-mRNA LNPs composed of different structural cationic lipids on the mRNA delivery efficiency after intraperitoneal administration according to some embodiments of the present disclosure. Targeting and expression of PL lipids on adipose tissue after intraperitoneal administration is also evaluated. […] That is to say, the PL lipid structure with the plurality of tertiary amino group structures may enhance the selective targeting of visceral adipocytes. […]
as §1

[4] = Summary of the strongest expressions over the administration routes; details: strongest level of the three administrations
Excerpt: as §1

[5] = system: NIH-3T3 cells; experiment: Transfection efficiency of lipid nanoparticles in NIH-3T3 cells; type: cell-based, murine
Method: The prepared cationic compounds (PL1, PL4, PL8, PL10, PL11, PL12, PL13, PL14, PL17, PL18, PL23, PL24, PL26, PL27, PL28, PL29, PL30, PL31, PL32, PL33, PL36, PL38, PL41, PL44, PL45, PL53, PL54, PL55, PL56, PL57, PL58, PL59, PL60, PL61, PL78, PL79, PL93, PL94, PL95, PL96, PL97, PL103), DOPE/DSPC, cholesterol, and DMG-PEG2000 are prepared with ethanol in a molar ratio of 35:16:46.5:2.5 to form the ethanol phase, and RNA is formulated into the aqueous phase with 50 mM citrate buffer solution at pH=4. Lipid nanoparticles are obtained by microfluidic mixing at aqueous phase:ethanol phase=3:1 (v/v), followed by dialysis purification in PBS at pH 7.4 overnight to remove ethanol.
Determination process included: preparing a 96-well plate, inoculating cells (4000 cells/well), adding 100 μL of medium, incubating at 37° C. overnight; after 24 h, adding lipid nanoparticles diluted with medium (achieving the final concentration of RNA of 10 µg/mL), incubating at 37° C. for 24 h, and then adding 50 μL of specialized luciferase substrate to each well, followed by detection using by a microplate reader (chemiluminescence).
FIG. 1A and FIG. 1B illustrate transfection of lipid nanoparticles of a DOPE group and a DSPC group in NIH3T3 cells according to some embodiments of the present disclosure. Specifically, for compounds PL1, PL4, PL6, PL8, PL10, PL11, PL12, lipid nanoparticles are prepared by DOPE and DSPC, respectively, according to an […] (Example 44). The transfection efficiency of these two groups of lipid nanoparticles in cells is first evaluated, and murine fibroblasts NIH-3T3 are selected for incubation (Example 47), and the results are shown in FIG. 1A and FIG. 1B. […] PL10, PL11, and PL12 all include two tertiary amino groups.

Structure (SMILES)	expression in vivo compared with control MC3 [1]	enhancement of in vivo expression with respect to control MC3 [1]	Intramuscular injection (PL/MC3) expression strength level [1]	in vivo transfection (expression, FIG. 5) [1]	White adipocyte administration (PL/SM102) expression strength level [2]	expression compared with control SM102 [2]	Intraperitoneal injection (PL/SM102) expression strength level [3]	Summary of the strongest expressions [4]	expression compared with control SM102 [3]	transfection efficiency relative to MC3 LNP ([5]; DSPC group LNP)	transfection efficiency relative to MC3 LNP ([5]; DOPE group LNP)
CCCCCCCCCCCCN(CCCCCCCCCCCC)CCCN1CCN(CCCNP(=O)(OCCCCCCOC(=O)C(CC)CCCC)OCCCCCCOC(=O)C(CC)CCCC)CC1 (stereo not drawn) [PL53]	better than that of control MC3	an order of magnitude enhancement	A (A: ≥2)	expressed	B (B: ≥1 and <2)	superior to that of the control SM102	C (C: ≥0.1 and <1)	A (A: ≥2)			
CCCCC/C=C\C/C=C\CCCCCCCCOP(=O)(NCCCN(CCCN(CC(O)CCCCCCCCCC)CC(O)CCCCCCCCCC)CC(O)CCCCCCCCCC)OCCCCCCCC/C=C\C/C=C\CCCCC (stereo not drawn) [PL18]			A (A: ≥2)	expressed	C (C: ≥0.1 and <1)		D (D: <0.1)	A (A: ≥2)			
CCCCCCCCCCCCN(CCCCCCCCCCCC)CCCN1CCN(CCCNP(=O)(OCCCCCCCCOC(=O)C(CC)CCCC)OCCCCCCCCOC(=O)C(CC)CCCC)CC1 (stereo not drawn) [PL56]	better than that of control MC3	an order of magnitude enhancement	A (A: ≥2)	expressed	B (B: ≥1 and <2)	superior to that of the control SM102	A (A: ≥2)	A (A: ≥2)	superior to that of the control SM102		
CCCCC/C=C\C/C=C\CCCCCCCCOP(=O)(NCCN(CCCCCCCCCCCC)CCCN(C)C)OCCCC(=O)OCCCCCCCCCCC (stereo not drawn) [PL11]	close to that of MC3		C (C: ≥0.1 and <1)	expressed	C (C: ≥0.1 and <1)			C (C: ≥0.1 and <1)		3 fold	
CC/C=C\C/C=C\C/C=C\C/C=C\C/C=C\CCCC(=O)OCCCCCCOP(=O)(NCCCN1CCN(CCCN(CC(O)CCCCCCCCCC)CC(O)CCCCCCCCCC)CC1)OCCCCCCOC(=O)CCC/C=C\C/C=C\C/C=C\C/C=C\C/C=C\CC (stereo not drawn) [PL79]					B (B: ≥1 and <2)	superior to that of the control SM102	C (C: ≥0.1 and <1)	B (B: ≥1 and <2)			
CCCCCCCCCCCCN(CCCCCCCCCCCC)CCCN1CCN(CCCNP(=O)(OCCCCCCOC(=O)C(CCCCCC)CCCCCCCC)OCCCCCCOC(=O)C(CCCCCC)CCCCCCCC)CC1 (stereo not drawn) [PL55]	better than that of control MC3	an order of magnitude enhancement	A (A: ≥2)	expressed	B (B: ≥1 and <2)	superior to that of the control SM102	B (B: ≥1 and <2)	A (A: ≥2)	superior to that of the control SM102		
CCCCC/C=C\C/C=C\C/C=C\C/C=C\CCCC(=O)OCCCCCCOP(=O)(NCCCN1CCN(CCCN(CCCCCCCCCCCC)CCCCCCCCCCCC)CC1)OCCCCCCOC(=O)CCC/C=C\C/C=C\C/C=C\C/C=C\CCCCC [PL59]					A (A: ≥2)	superior to that of the control SM102	D (D: <0.1)	A (A: ≥2)			
CCCCCCCCCCCCN(CCCCCCCCCCCC)CCCN1CCN(CCCNP(=O)(OCCCCCCOC(=O)C(CC)CCCCCC)OCCCCCCOC(=O)C(CC)CCCCCC)CC1 (stereo not drawn) [PL54]			A (A: ≥2)	expressed	B (B: ≥1 and <2)	superior to that of the control SM102	B (B: ≥1 and <2)	A (A: ≥2)	superior to that of the control SM102		
CCCCC/C=C\C/C=C\CCCCCCCCOP(=O)(NCCCN1CCN(CCCN(CC(O)CCCCCCCCCC)CC(O)CCCCCCCCCC)CC1)OCCCCCCCC/C=C\C/C=C\CCCCC (stereo not drawn) [PL23]			A (A: ≥2)	expressed	C (C: ≥0.1 and <1)		C (C: ≥0.1 and <1)	A (A: ≥2)			
CCC/C=C\C/C=C\C/C=C\C/C=C\C/C=C\C/C=C\CCC(=O)OCCCCCCOP(=O)(NCCCN1CCN(CCCN(CCCCCCCCCCCC)CCCCCCCCCCCC)CC1)OCCCCCCOC(=O)CC/C=C\C/C=C\C/C=C\C/C=C\C/C=C\C/C=C\CCC [PL61]					C (C: ≥0.1 and <1)		D (D: <0.1)	C (C: ≥0.1 and <1)			
CCCCCCCCCCCCN(CCCCCCCCCCCC)CCCN1CCN(CCCNP(=O)(OCCCCCCCCOC(=O)C(CC)CCCCCC)OCCCCCCCCOC(=O)C(CC)CCCCCC)CC1 (stereo not drawn) [PL57]	better than that of control MC3	an order of magnitude enhancement	A (A: ≥2)	expressed	B (B: ≥1 and <2)	superior to that of the control SM102	A (A: ≥2)	A (A: ≥2)	superior to that of the control SM102		
CCCCC/C=C\C/C=C\CCCCCCCCOP(=O)(NCCCN(C)C)OCCCCCCCC/C=C\C/C=C\CCCCC [PL1]				expressed							16 fold
CCCCCCCCCCCCN(CCCCCCCCCCCC)CCCN1CCN(CCCNP(=O)(OCCCCCCCCOC(=O)C(CCCCCC)CCCCCCCC)OCCCCCCCCOC(=O)C(CCCCCC)CCCCCCCC)CC1 (stereo not drawn) [PL58]			A (A: ≥2)	expressed	C (C: ≥0.1 and <1)		C (C: ≥0.1 and <1)	A (A: ≥2)			
CCCCC/C=C\C/C=C\CCCCCCCCOP(=O)(NCCN(CCN(CCN(C)C)CC(O)CCCCCCCCCC)CC(O)CCCCCCCCCC)OCCCCCCCC/C=C\C/C=C\CCCCC (stereo not drawn) [PL20]					B (B: ≥1 and <2)	superior to that of the control SM102	B (B: ≥1 and <2)	B (B: ≥1 and <2)	superior to that of the control SM102		
